Experimental data: patent publication US9687539B2, “CD4+ T survivin epitopes and uses thereof” (Commissariat a I'Energie Atomique, priority 2005, dated 2017)
Numbering of substitutions follows the chain as printed. No end group written: not given here.

Columns and labels:
[1] = target: HLA-DR3 (DRB1*0301) (Homo sapiens, UniProt P01903+P01911, A100K/A102G/A103R/A169T/F55Y/I96L/K41T/L162R/M171V/P40S/Q125H/Q178H/Q39Y/R42S/S66N/T106N/T262R/W38E/Y61H); experiment: biochemical; conditions: competition with biotinylated tracer; 3 independent experiments; read-out: Binding activity DR3 (IC50)
[2] = target: HLA-DRB5 (DRB5*0101) (Homo sapiens, UniProt P01903+Q30154); experiment: Competitive HLA II/peptide binding assay, HLA-DRB5; conditions: competition with biotinylated tracer; 3 independent experiments
[3] = target: HLA-DR4 (DRB1*0401) (Homo sapiens, UniProt P01903+P01911, A100K/A169T/F76Y/I96L/K127E/L162R/M171V/N62H/P40V/Q125Y/R42H/S133A/S149N/S66Y/V115G/V209L/W38E); experiment: Competitive HLA II/peptide binding assay, HLA-DR4; conditions: competition with biotinylated tracer; 3 independent experiments
[4] = target: HLA-DRB4 (DRB4*0101) (Homo sapiens, UniProt P01903+P13762, G164S); experiment: Competitive HLA II/peptide binding assay, HLA-DRB4; conditions: competition with biotinylated tracer; 3 independent experiments
[5] = target: HLA-DR15 (DRB1*1501) (Homo sapiens, UniProt P01903+P01911); experiment: Competitive HLA II/peptide binding assay, HLA-DR15; conditions: competition with biotinylated tracer; 3 independent experiments
[6] = target: HLA-DR7 (DRB1*0701) (Homo sapiens, UniProt P01903+P01911, A100R/A102G/A103Q/D57E/D86V/E43K/F76Y/K127E/L162R/M171V/P40G/Q125H/Q99D/R33Q/R42Y/R54Q/S133A/S66F/T210M/V115G/Y107V/Y59L/Y89S); experiment: biochemical; conditions: competition with biotinylated tracer; 3 independent experiments; read-out: Binding activity DR7 (IC50)
[7] = target: HLA-DR1 (DRB1*0101) (Homo sapiens, UniProt P01903+P01911, A100R/D57E/F55L/F60I/F76Y/I96L/L162R/M171V/P40L/Q125E/R42F/V115G/Y59C); experiment: Competitive HLA II/peptide binding assay, HLA-DR1; conditions: competition with biotinylated tracer; 3 independent experiments
[8] = system: 12 predominant HLA II molecules; experiment: Binding to the 12 predominant HLA II molecules, summary; set-up: species or system human; conditions: for No. of molecules fixed: number of the 12 predominant HLA II molecules bound (IC50 < 1000 nM)
Description: The assays for binding to HLA II molecules are competitive binding assays with immunoenzymatic visualization, as described in U.S. Pat. No. 6,649,166, Texier et al., J. Immunol., 2000, 164, 3177-3184 and Texier et al., Eur. J. Immunol., 2001, 31, 1837-1846, for the HLA-DR molecules, and in PCT international application WO 03/040299 and Castelli et al., J. Immunol., 2002, 169, 6928-6934, for the HLA-DP4 molecule. The use of these assays for measuring the binding activity of peptides derived from various antigens is illustrated in U.S. Pat. No. 6,649,166 and PCT international applications WO 02/090382, WO 03/040299 and WO 2004/014936.
The sensitivity of each assay is reflected by the IC50 values observed with the nonbiotinylated peptides which correspond to the tracers; the IC50 values of the tracers vary by a factor of less than three.

[9] = target: HLA-DRB3 (DRB3*0101) (Homo sapiens, UniProt P01903+P79483); experiment: Competitive HLA II/peptide binding assay, HLA-DRB3; conditions: competition with biotinylated tracer; 3 independent experiments
[10] = target: T1, HLA-DP401 (DP*0401) (Homo sapiens, UniProt P04440+P20036); experiment: biochemical; conditions: competition with biotinylated tracer; 3 independent experiments; read-out: Binding activity DP401 (IC50)
T1 sequence (P04440 30-258): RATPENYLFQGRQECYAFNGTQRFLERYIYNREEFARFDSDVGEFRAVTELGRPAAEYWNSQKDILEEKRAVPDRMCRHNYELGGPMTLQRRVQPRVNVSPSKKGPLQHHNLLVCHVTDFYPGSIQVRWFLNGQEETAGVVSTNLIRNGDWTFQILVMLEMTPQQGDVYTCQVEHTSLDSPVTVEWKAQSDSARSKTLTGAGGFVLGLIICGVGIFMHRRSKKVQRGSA
T1 sequence (P20036 29-260): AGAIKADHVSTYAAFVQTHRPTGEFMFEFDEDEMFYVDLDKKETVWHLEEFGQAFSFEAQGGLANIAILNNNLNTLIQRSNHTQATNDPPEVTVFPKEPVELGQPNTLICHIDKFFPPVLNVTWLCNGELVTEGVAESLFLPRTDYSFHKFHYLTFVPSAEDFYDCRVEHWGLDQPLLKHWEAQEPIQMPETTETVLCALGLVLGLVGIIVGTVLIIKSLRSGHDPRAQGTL

[11] = target: HLA-DR11 (DRB1*1101) (Homo sapiens, UniProt P01903+P01911, A100R/A169T/A87E/I96F/K41T/L162R/M171V/P40S/Q125H/Q178H/Q39Y/Q99D/R42S/S66Y/T262R/V115G/W38E); experiment: biochemical; conditions: competition with biotinylated tracer; 3 independent experiments; read-out: Binding activity DR11 (IC50)
[12] = target: T2, HLA-DP402 (DP*0402) (Homo sapiens, UniProt P04440+P20036, A65V/A84D/A85E/L207M); experiment: biochemical; conditions: competition with biotinylated tracer; 3 independent experiments; read-out: Binding activity DP402 (IC50)
T2 sequence (P04440 30-258 A65V/A84D/A85E): T1 sequence (P04440 30-258) with A36V, A55D, A56E
T2 sequence (P20036 29-260): T1 sequence (P20036 29-260)

[13] = target: HLA-DR13 (DRB1*1301) (Homo sapiens, UniProt P01903+P01911, A100E/A169T/K41T/L162R/M171V/P40S/Q125H/Q178H/Q39Y/Q99D/R42S/S66N/T262R/W38E/Y61H); experiment: Competitive HLA II/peptide binding assay, HLA-DR13; conditions: competition with biotinylated tracer; 3 independent experiments; read-out: Binding activity DR13 (IC50)

| Compound | IC50 [1] | IC50 [2] | IC50 [3] | IC50 [4] | IC50 [5] | IC50 [6] | IC50 [7] | Binding specificity for HLA II molecules [8] | No. of molecules fixed [8] | IC50 [9] | IC50 [10] | IC50 [11] | IC50 [12] | IC50 [13] |
| --- | --- | --- | --- | --- | --- | --- | --- | --- | --- | --- | --- | --- | --- | --- |
| CC(C)C[C@H](NC(=O)[C@H](Cc1ccccc1)NC(=O)[C@@H]1CCCN1C(=O)[C@H](CCC(N)=O)NC(=O)[C@H](Cc1c[nH]c2ccccc12)NC(=O)[C@H](C)NC(=O)[C@@H]1CCCN1C(=O)[C@@H]1CCCN1C(=O)[C@H](CC(C)C)NC(=O)[C@@H](NC(=O)[C@@H]1CCCN1)[C@@H](C)O)C(=O)N[C@@H](CCCCN)C(=O)N[C@@H](CC(=O)O)C(=O)N[C@@H](Cc1c[nH]cn1)C(=O)N[C@@H](CCCNC(=N)N)C(=O)O [4-18, P T L P P A W Q P F L K D H R] | > 100 µM | 5.48 µM | > 100 µM | > 100 µM | > 100 µM | > 100 µM | 45 µM | bind only to the HLA-DR11 molecule | 1 | > 100 µM |  |  |  |  |
| DPIEEHKKHSSGCAF [72-86, D P I E E H K K H S S G C A F] | > 100 µM |  | > 100 µM | > 100 µM | > 100 µM | > 100 µM |  |  | 0 | > 100 µM | > 100 µM | > 100 µM | > 100 µM |  |
| EGWEPDDDPIEEHKK [65-79, E G W E P D D D P I E E H K K] | > 100 µM | > 100 µM | > 100 µM | > 100 µM | > 100 µM | > 100 µM | > 100 µM |  | 0 | > 100 µM | > 100 µM | > 100 µM | > 100 µM | > 100 µM |
| GEFLKLDRERAKNKI [99-113, G E F L K L D R E R A K N K I] |  | 0.022 µM |  | 22 µM | 1.2 µM |  |  |  | 3 | > 100 µM |  | 0.04 µM | > 100 µM |  |
| KEFEETAKKVRRAIE [122-136, K E F E E T A K K V R R A I E] |  |  | > 100 µM | > 100 µM | 1.2 µM | 20 µM |  |  | 3 | > 100 µM | > 100 µM |  | > 100 µM |  |
| KELEGWEPDDDPIEE [62-76, K E L E G W E P D D D P I E E] | > 100 µM | > 100 µM | > 100 µM | > 100 µM | 65 µM | > 100 µM | > 100 µM |  | 0 | 29 µM | > 100 µM | > 100 µM | > 100 µM | > 100 µM |
| KQFEELTLGEFLKLD [91-105, K Q F E E L T L G E F L K L D] | > 100 µM |  |  | > 100 µM |  |  |  | high affinity for the DR1, DR7, DRB5, DP401 and DP402 molecules | 5 | 30 µM |  | 2.35 µM |  | > 100 µM |
